Publication PMC6268061, “Investigation of the Biological Properties of (Hetero)Aromatic Thiosemicarbazones” (Molecules, 2012)
Converted amounts (≈) assume the structure as drawn. Like-named read-outs stand apart in the source and are kept apart here.

Tested on: Trichosporon beigelii 1188
Test: In vitro antifungal susceptibility, broth microdilution
Assay type: cell-based
Details: read-out: MIC (IC80) TB
Method in brief: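 Twofold dilutions (500 to 0.975 μmol/L final) in RPMI 1640 with MOPS, pH 7.0, per CLSI broth microdilution. MIC taken as IC80 for yeasts (M27-A2) or IC50 for moulds (M38-A) versus drug-free control, read after 24 and 48 h static incubation at 35 °C.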

[1] = Trichosporon beigelii, 1188, 24 h
[2] = Trichosporon beigelii, 1188, 48 h

| Compound | MIC [1] | MIC [2] |
| --- | --- | --- |
| CN(C)C(=S)N/N=C/c1ccc(Cl)c(Cl)c1 [Compound 3h, (E)-2-(3,4-Dichlorobenzylidene)-N,N-dimethylhydrazinecarbothioamide] | 125 µM (≈ 34.5 µg/mL) | 500 µM (≈ 138 µg/mL) |
| NC(=S)N/N=C/c1ccc(Br)cc1 [Compound 3k, (E)-2-(4-Bromobenzylidene)hydrazinecarbothioamide] | 500 µM (≈ 129 µg/mL) | 500 µM (≈ 129 µg/mL) |
| CN(C)C(=S)N/N=C/c1ccc(Br)cc1 [Compound 3m, (E)-2-(4-bromobenzylidene)-N,N-dimethylhydrazinecarbothioamide] | 15.6 µM (≈ 4.47 µg/mL) | 62.5 µM (≈ 17.9 µg/mL) |
